Test [1] is described as follows: Cytotoxicity against human MIAPaCa2 cells assessed as reduction in cell viability after 48 hrs by WST8 assay. In kind it is functional, cell-based. The conditions noted are these: MIA PaCa-2, 48 h.
The nature of test [2]: Cytotoxicity against human MIAPaCa2 cells assessed as reduction in cell viability after 24 hrs by WST8 assay. In kind it is functional, cell-based. The settings on record: MIA PaCa-2, 24 h.
Test [3] can be described thus: Cytotoxicity against human PC3 cells assessed as reduction in cell viability after 48 hrs by WST8 assay. It counts as functional, cell-based. The settings on record: PC-3, 48 h.
In the next test the target is Tubulin (Sus scrofa) (UniProt P02554+P02550). The test can be described thus: Induction of porcine brain tubulin polymerization at 5 uM incubated for 10 to 40 mins by spectrophotometry.
Chain of Tubulin (Sus scrofa) (P02550 whole entry, looked up): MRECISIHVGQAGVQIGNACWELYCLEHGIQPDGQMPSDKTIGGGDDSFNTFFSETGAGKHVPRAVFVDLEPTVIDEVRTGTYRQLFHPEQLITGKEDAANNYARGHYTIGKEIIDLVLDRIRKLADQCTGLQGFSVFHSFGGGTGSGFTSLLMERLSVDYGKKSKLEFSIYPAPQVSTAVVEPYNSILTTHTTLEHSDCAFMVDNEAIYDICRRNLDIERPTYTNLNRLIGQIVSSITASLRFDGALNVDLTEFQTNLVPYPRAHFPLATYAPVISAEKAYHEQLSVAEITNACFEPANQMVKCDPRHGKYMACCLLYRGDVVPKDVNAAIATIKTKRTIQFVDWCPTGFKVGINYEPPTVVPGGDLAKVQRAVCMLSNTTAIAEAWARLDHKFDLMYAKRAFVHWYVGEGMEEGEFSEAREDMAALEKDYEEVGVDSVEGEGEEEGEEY
Chain of Tubulin (Sus scrofa) (P02554 whole entry, looked up): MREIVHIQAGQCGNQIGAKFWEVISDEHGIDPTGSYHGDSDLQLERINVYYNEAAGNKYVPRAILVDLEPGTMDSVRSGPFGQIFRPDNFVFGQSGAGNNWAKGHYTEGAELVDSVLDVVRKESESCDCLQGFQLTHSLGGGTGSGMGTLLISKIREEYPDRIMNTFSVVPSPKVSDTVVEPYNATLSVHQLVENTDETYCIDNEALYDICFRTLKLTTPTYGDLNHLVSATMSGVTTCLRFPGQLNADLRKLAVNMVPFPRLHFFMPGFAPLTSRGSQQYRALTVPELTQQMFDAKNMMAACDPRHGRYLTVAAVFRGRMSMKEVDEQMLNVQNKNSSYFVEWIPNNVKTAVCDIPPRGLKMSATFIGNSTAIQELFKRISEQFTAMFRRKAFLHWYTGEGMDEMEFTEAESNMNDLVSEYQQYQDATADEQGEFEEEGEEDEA
Test [4] has as its system A549. The test can be described thus: Cytotoxicity against human A549 cells assessed as reduction in cell viability after 24 hrs by WST8 assay. In kind it is functional, cell-based. The settings on record: A549, 24 h.
The nature of test [5]: Cytotoxicity against human PC3 cells assessed as reduction in cell viability after 24 hrs by WST8 assay. It counts as functional, cell-based. The conditions noted are these: PC-3, 24 h.
Test [6] deals with A549. The test can be described thus: Cytotoxicity against human A549 cells assessed as reduction in cell viability after 48 hrs by WST8 assay. The settings on record: A549, 48 h. In kind it is functional, cell-based.

Activity calls are given as the source filed them. The rule behind the calls is not given here. Bounds are passed on as bounds.

`COc1ccc2c(/C=C(\C#N)C(=O)c3c[nH]c4cc(OC)ccc34)c[nH]c2c1`: the 50% inhibitory concentration (IC50) is above 50 µM in test [1]; above 50 µM in test [2]; 27 µM in test [3]; 1.9 µM in the test with A549 [4]; above 50 µM in test [5]; 1.7 µM in the test with A549 [6]. Besides, the outcome at Tubulin (Sus scrofa) was Active.

Regarding `COc1ccc2[nH]cc(/C=C(\C#N)C(=O)c3c[nH]c4ccc(OC)cc34)c2c1`, the 50% inhibitory concentration (IC50) was above 50 µM in test [1]; 28.5 µM in test [2]; above 50 µM in test [3]; above 50 µM in the test with A549 [4]; above 50 µM in test [5]; 24.5 µM in the test on A549 [6].

For the compound `COc1ccc2c(/C=C(\C#N)C(=O)c3c[nH]c4cc(F)ccc34)c[nH]c2c1`, the IC50 in test [1] is above 50 µM; in test [2], above 50 µM; in test [3], 21.4 µM; in the test on A549 [4] it was 10.3 µM; in test [5], above 50 µM; with A549 [6] it was 5.5 µM.

As for `COc1ccc(Cn2cc(/C=C(\C#N)C(=O)c3c[nH]c4ccccc34)c3ccccc32)cc1`, the IC50 (in test [1]; in test [2]; in test [3]; in the test on A549 [4]; in test [5]; in the test with A549 [6]) was above 50 µM throughout.

On to `COc1ccc2c(/C=C(\C#N)C(=O)c3c[nH]c4ccccc34)c[nH]c2c1`, for which the IC50 was above 50 µM in test [1]; 27.5 µM in test [2]; 12.5 µM in test [3]; 9.6 µM in the test on A549 [4]; 33.3 µM in test [5]; 5.8 µM in the test on A549 [6].

Regarding `COc1ccc2[nH]cc(/C=C(\C#N)C(=O)c3c[nH]c4ccccc34)c2c1`, the IC50 was 25.1 µM in test [1]; 21.2 µM in test [2]; 30.5 µM in test [3]; 6.6 µM in the test on A549 [4]; 33.2 µM in test [5]; 13.7 µM in the test with A549 [6].

For `N#C/C(=C\c1cn(Cc2ccc(Cl)cc2)c2ccccc12)C(=O)c1c[nH]c2cc(F)ccc12`, the half-maximal inhibitory concentration (IC50) in test [1] is 16.6 µM; in test [2], above 50 µM; in test [3], above 50 µM; with A549 [4], above 50 µM; in test [5], above 50 µM; with A549 [6] it was above 50 µM.

Consider `Cn1cc(/C=C(\C#N)C(=O)c2c[nH]c3ccccc23)c2ccccc21`, for which the IC50 in test [1] was above 50 µM; in test [2] it was 31.6 µM; in test [3], above 50 µM; with A549 [4], 27.9 µM; in test [5], above 50 µM; with A549 [6] it was above 50 µM.

As for `N#C/C(=C\c1cn(Cc2ccc(Cl)cc2)c2ccc(Br)cc12)C(=O)c1c[nH]c2ccccc12`, the half-inhibitory concentration (IC50) in test [1] was above 50 µM; in test [2], 37.7 µM; in test [3] it was 36.5 µM; with A549 [4], 14 µM; in test [5], 47.1 µM; in the test on A549 [6], 24.9 µM.

As to `COc1ccc2c(C(=O)/C(C#N)=C/c3cn(Cc4ccc(Cl)cc4)c4ccccc34)c[nH]c2c1`, the half-inhibitory concentration (IC50) is 40.4 µM in test [1]; above 50 µM in test [2]; above 50 µM in test [3]; above 50 µM in the test with A549 [4]; above 50 µM in test [5]; above 50 µM in the test on A549 [6].

On to `N#C/C(=C\c1c[nH]c2cc(F)ccc12)C(=O)c1c[nH]c2cc(F)ccc12`, for which the half-inhibitory concentration (IC50) in test [1] was above 50 µM; in test [2], above 50 µM; in test [3], above 50 µM; in the test on A549 [4], above 50 µM; in test [5] it was above 50 µM; with A549 [6], 36.1 µM.

As to `COc1ccc2c(C(=O)/C(C#N)=C/c3c[nH]c4ccc(OC)cc34)c[nH]c2c1`, the concentration for half-maximal inhibition (IC50) in test [1] was above 50 µM; in test [2], above 50 µM; in test [3], 37.1 µM; in the test on A549 [4] it was 3.7 µM; in test [5] it was 31.1 µM; with A549 [6] it was 5.5 µM.

For the compound `N#C/C(=C\c1c[nH]c2ccccc12)C(=O)c1c[nH]c2ccccc12`, the IC50 in test [1] was 36.8 µM; in test [2], 17.9 µM; in test [3], above 50 µM; in the test on A549 [4], 16.1 µM; in test [5], above 50 µM; with A549 [6], 22 µM.

In the case of `N#C/C(=C\c1c[nH]c2ccc(Br)cc12)C(=O)c1c[nH]c2ccc(Br)cc12`, the IC50 (in test [1]; in test [2]; in test [3]; with A549 [4]; in test [5]; in the test on A549 [6]) was above 50 µM in each case.

Consider `CO[C@@]12[C@H](COC(N)=O)C3=C(C(=O)C(C)=C(N)C3=O)N1C[C@@H]1N[C@@H]12` [MITOMYCIN], for which, in the test on A549 [4], the 50% inhibitory concentration (IC50) came to 0.45 µM.

For the compound `COc1ccc(Cn2cc(/C=C(\C#N)C(=O)c3c[nH]c4cc(OC)ccc34)c3ccccc32)cc1`, the IC50 in test [1] is above 50 µM; in test [2], above 50 µM; in test [3], above 50 µM; in the test with A549 [4], 37.4 µM; in test [5], above 50 µM; in the test on A549 [6] it was 28.9 µM. Besides, the outcome at Tubulin (Sus scrofa) was Active.

On to `COc1ccc(-c2[nH]c3ccccc3c2/C=C(\C#N)C(=O)c2c[nH]c3ccccc23)cc1`, for which the IC50 in test [1] is above 50 µM; in test [2], 24 µM; in test [3], 8.1 µM; in the test on A549 [4] it was 4.9 µM; in test [5], 17.2 µM; with A549 [6], 3 µM.

In the case of `N#C/C(=C\c1c[nH]c2cc(F)ccc12)C(=O)c1c[nH]c2ccccc12`, the 50% inhibitory concentration (IC50) in test [1] was 31.6 µM; in test [2] it was 23.5 µM; in test [3], above 50 µM; in the test on A549 [4] it was 17 µM; in test [5] it was above 50 µM; with A549 [6], 22.7 µM.

For the compound `COc1ccc(Cn2cc(/C=C(\C#N)C(=O)c3c[nH]c4cc(F)ccc34)c3ccccc32)cc1`, the half-inhibitory concentration (IC50) in test [1] is 29.4 µM; in test [2] it was above 50 µM; in test [3] it was above 50 µM; with A549 [4], above 50 µM; in test [5] it was above 50 µM; in the test with A549 [6], 36.3 µM.

Turning to `N#C/C(=C\c1cn(Cc2ccc(Cl)cc2)c2ccccc12)C(=O)c1c[nH]c2ccccc12`, the IC50 (in test [1]; in test [2]; in test [3]; with A549 [4]; in test [5]; with A549 [6]) was above 50 µM each time.

With `COc1ccc2[nH]cc(/C=C(\C#N)C(=O)c3c[nH]c4cc(F)ccc34)c2c1`, the IC50 in test [1] was above 50 µM; in test [2], above 50 µM; in test [3], above 50 µM; in the test with A549 [4], 18 µM; in test [5], above 50 µM; with A549 [6], 26.3 µM.

With `COc1ccc2[nH]cc(C(=O)/C(C#N)=C/c3c[nH]c4cc(F)ccc34)c2c1`, the IC50 (in test [1]; in test [2]; in test [3]; with A549 [4]; in test [5]; in the test with A549 [6]) was above 50 µM each time.

As for `COc1ccc2c(C(=O)/C(C#N)=C/c3c[nH]c4cc(F)ccc34)c[nH]c2c1`, the IC50 in test [1] is above 50 µM; in test [2] it was above 50 µM; in test [3], 22.5 µM; in the test with A549 [4], 2.4 µM; in test [5], 36 µM; in the test with A549 [6], 0.8 µM.

On to `COc1ccc2c(C(=O)/C(C#N)=C/c3c[nH]c4ccccc34)c[nH]c2c1`, for which the IC50 in test [1] was above 50 µM; in test [2], 13.5 µM; in test [3], 12 µM; in the test on A549 [4], 6.4 µM; in test [5] it was above 50 µM; with A549 [6], 7.5 µM. On Tubulin (Sus scrofa), the result was Active.
